# Measurements: US20250340886A1, “INTRACELLULAR KINASE ASSOCIATED WITH RESISTANCE AGAINST ANTI-TUMOUR IMMUNE RESPONSES, AND USES THEREOF” (iOmx Therapeutics AG, priority 2017, published 2025)
# Like-named read-outs stand apart in the source and are kept apart here.
# Legend:
# SIK2 = SIK2 (Homo sapiens (Human), UniProt Q9H0K1); assay: radiometric protein kinase assay (33PanQinase Activity Assay, ProQinase Free Choice Kinase Assay); format: biochemical; conditions: ATP 1.0 uM, read-out: SIK2 IC50 rank
# Sequence of SIK2 (Q9H0K1 whole entry): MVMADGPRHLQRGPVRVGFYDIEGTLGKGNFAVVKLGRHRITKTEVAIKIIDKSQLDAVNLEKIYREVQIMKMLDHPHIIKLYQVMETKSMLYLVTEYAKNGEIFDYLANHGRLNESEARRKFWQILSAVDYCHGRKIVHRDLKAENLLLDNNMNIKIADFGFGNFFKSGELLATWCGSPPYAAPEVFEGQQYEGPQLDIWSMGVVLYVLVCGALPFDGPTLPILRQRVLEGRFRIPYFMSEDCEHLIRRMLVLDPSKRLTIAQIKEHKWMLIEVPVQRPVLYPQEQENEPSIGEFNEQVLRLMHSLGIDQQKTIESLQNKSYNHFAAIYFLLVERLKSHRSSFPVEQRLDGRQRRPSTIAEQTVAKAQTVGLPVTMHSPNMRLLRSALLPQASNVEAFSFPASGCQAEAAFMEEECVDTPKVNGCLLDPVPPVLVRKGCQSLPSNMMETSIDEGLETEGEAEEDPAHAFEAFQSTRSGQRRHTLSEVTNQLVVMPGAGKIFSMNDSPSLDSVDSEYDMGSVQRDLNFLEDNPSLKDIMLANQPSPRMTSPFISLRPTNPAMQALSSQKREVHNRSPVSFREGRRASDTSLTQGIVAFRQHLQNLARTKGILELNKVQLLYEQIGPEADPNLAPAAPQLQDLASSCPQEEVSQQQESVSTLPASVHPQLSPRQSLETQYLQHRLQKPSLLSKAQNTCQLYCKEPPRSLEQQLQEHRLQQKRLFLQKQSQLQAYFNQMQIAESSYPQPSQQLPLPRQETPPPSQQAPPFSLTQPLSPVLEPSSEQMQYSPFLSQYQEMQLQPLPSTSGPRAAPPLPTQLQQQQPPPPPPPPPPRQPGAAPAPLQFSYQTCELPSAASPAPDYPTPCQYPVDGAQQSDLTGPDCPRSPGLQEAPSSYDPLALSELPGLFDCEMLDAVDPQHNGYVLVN
# M579-A2-luc tumour cells = assay: luciferase-based tumour cell viability assay, M579-A2-luc cells with inhibitor and TNF; conditions: for tumour cell survival (RLU): in combination with 10 ng/mL TNF, about 20 to 100 nM, FIG. 18
# SIK3 = SIK3 (Homo sapiens (Human), UniProt Q9Y2K2); assay: radiometric protein kinase assay (33PanQinase Activity Assay, ProQinase Free Choice Kinase Assay); format: biochemical; conditions: read-out: SIK3 IC50 rank
# Sequence of SIK3 (Q9Y2K2 whole entry): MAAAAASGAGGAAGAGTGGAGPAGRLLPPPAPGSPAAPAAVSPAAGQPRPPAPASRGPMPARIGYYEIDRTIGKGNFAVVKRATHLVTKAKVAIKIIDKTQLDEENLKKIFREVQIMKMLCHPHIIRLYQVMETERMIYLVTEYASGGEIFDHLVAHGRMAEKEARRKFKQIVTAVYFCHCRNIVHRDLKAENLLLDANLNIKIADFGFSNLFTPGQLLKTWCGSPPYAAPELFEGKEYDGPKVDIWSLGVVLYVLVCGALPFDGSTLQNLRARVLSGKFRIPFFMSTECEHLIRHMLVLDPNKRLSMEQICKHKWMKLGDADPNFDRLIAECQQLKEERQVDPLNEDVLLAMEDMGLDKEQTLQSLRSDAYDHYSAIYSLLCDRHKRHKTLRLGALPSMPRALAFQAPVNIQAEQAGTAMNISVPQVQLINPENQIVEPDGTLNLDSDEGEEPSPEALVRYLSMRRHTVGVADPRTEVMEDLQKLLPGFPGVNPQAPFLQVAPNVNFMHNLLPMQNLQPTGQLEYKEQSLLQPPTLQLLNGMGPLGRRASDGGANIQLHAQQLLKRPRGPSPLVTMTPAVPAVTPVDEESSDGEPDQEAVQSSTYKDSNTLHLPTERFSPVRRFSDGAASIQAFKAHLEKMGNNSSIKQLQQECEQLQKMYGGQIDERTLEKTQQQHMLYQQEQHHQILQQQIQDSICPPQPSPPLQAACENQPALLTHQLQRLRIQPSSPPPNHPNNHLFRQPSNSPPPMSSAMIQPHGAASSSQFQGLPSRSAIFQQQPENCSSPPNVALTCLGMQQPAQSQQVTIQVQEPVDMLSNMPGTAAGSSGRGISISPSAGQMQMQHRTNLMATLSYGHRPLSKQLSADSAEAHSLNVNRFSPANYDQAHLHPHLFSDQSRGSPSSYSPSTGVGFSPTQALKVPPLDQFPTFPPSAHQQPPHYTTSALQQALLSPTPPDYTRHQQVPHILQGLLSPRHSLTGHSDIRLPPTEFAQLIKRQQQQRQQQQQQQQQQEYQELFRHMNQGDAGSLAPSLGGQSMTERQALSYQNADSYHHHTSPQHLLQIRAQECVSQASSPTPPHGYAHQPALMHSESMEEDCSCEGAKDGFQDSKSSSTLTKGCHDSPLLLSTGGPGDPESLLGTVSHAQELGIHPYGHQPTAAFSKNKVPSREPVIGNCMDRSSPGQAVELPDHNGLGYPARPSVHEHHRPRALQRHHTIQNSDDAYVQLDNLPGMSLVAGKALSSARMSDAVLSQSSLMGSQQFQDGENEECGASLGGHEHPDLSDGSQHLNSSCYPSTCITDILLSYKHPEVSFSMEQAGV
# SIK1 = SIK1 (Homo sapiens (Human), UniProt P57059); assay: as above; format: biochemical; conditions: ATP 3.0 uM, read-out: SIK1 IC50 rank
# Sequence of SIK1 (P57059 whole entry): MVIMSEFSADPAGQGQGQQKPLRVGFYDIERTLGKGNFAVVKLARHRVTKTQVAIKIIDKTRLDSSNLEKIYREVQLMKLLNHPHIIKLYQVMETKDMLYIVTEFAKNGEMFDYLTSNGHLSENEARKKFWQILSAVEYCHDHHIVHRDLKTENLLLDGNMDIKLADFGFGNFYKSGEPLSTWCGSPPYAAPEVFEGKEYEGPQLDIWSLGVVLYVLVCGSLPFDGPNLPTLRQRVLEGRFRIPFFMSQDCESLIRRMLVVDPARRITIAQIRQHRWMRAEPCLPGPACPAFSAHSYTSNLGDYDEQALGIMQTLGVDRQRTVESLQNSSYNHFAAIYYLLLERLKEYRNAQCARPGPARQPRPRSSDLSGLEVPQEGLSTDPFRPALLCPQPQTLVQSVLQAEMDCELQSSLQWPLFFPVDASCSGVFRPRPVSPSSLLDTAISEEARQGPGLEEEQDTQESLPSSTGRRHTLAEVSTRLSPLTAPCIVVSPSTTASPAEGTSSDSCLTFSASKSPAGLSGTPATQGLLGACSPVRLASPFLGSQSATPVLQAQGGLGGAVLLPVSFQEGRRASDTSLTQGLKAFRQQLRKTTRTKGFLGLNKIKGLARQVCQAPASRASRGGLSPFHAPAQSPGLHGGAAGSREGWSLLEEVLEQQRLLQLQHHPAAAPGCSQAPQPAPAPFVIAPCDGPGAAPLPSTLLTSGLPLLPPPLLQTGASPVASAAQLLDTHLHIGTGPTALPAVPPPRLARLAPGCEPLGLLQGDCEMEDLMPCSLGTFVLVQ
# ABL1 wt = ABL1 wt (Homo sapiens (Human), UniProt P00519); assay: as above; format: biochemical; conditions: indicative IC50, Table 4; ATP 0.3 uM; read-out: ABL1 IC50 rank
# Sequence of ABL1 wt (P00519 whole entry): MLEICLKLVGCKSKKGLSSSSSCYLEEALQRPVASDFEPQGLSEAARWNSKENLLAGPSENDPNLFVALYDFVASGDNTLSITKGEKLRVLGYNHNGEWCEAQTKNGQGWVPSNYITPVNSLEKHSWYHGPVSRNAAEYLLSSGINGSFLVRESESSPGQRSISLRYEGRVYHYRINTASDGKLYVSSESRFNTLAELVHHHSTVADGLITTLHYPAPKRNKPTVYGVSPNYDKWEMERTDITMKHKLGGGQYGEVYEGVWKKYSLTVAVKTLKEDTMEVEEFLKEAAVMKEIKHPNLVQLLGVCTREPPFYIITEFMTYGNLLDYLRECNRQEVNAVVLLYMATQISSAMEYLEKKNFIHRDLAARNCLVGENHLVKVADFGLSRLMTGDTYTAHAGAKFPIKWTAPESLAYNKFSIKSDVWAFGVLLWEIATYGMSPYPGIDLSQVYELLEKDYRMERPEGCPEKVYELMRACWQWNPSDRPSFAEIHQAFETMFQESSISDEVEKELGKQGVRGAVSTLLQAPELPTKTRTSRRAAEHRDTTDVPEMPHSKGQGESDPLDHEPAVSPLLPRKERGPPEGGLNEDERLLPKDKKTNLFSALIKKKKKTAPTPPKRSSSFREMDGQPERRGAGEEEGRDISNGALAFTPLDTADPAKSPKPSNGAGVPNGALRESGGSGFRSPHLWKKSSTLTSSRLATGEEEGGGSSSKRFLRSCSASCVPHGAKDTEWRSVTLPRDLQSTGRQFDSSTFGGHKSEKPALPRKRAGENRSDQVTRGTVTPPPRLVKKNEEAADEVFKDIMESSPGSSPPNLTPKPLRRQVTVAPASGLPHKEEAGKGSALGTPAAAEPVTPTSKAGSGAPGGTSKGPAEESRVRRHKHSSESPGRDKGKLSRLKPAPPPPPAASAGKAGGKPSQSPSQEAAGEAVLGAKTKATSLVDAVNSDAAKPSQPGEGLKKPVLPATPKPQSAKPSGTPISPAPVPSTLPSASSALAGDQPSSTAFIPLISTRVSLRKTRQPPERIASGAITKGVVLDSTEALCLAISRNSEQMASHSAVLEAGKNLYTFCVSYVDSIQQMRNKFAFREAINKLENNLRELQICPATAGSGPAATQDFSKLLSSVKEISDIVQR
# SRC (GST-HIS-tag) = SRC (GST-HIS-tag) (Homo sapiens (Human), UniProt P12931); assay: as above; format: biochemical; conditions: indicative IC50, Table 4; ATP 0.3 uM; read-out: SRC IC50 rank
# Sequence of SRC (GST-HIS-tag) (P12931 whole entry, looked up): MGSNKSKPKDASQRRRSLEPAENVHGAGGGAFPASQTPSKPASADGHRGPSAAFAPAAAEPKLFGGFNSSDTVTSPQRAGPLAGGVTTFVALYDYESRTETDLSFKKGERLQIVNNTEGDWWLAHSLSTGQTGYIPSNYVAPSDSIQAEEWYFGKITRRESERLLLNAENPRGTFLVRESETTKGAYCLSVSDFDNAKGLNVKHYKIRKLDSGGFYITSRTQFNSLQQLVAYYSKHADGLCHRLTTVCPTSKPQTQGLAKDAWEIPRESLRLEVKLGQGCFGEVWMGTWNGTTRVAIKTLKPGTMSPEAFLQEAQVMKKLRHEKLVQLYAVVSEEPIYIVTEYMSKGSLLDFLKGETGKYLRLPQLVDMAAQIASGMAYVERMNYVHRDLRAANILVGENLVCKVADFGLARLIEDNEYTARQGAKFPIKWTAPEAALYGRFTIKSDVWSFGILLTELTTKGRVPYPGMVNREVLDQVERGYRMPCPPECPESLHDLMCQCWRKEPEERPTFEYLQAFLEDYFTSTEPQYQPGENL
# PANC-1 tumour cells [1] = assay: Luc-CTL assay: PANC-1 cells co-cultured with TIL #1 in the presence of small molecule SIK inhibitor; conditions: FIGS. 7A and 7B
# PANC-1 tumour cells [2] = tested on: PANC-1 tumour cells
# M579 tumours = assay: in vivo adoptive T cell transfer model, shCtrl or shSIK3-transduced M579 tumours in NSG mice; design: species or system mouse
# Source text: FIG. 16: (A) Schematic representation of the in vivo mouse experiment. Subcutaneous (s.c.) implantation of shCtrl or shSIK3-transduced M579 cells was applied to the left and the right flank of immunodeficient (NOD scid gamma; NSG) mice, respectively. (B) Mice received intravenous (i.v.) injection of TIL209 (n=9) or PBS alone (n=7) at day 3, 10, 17 and 24. (C) Tumour growth curves showing mean+/−SEM of tumour volume (mm3) of shCtrl or shSIK3-engrafted M579 tumours in mice treated with either TIL209 or PBS. Statistical difference was calculated using unpaired one-side Mann-Whitney U-test. (D) Binding of TNF to TNFR1 (TNFR-I) on tumour cells results in downstream signalling cascade that involve caspase 8 cleavage, NF-kappaB nuclear translocation and SIK3 phosphorylation. NF-kappaB nuclear retention is sustained by its acetylation, and HDAC4 deacetylase acts as negative regulator of NF-kappaB. TNF stimulation increases the levels of pLKB1 which in turn results in increased SIK3 activation. […]
# SIK3 was stably knocked down in the primary line using SIK3-specific shRNA (shSIK3) or the control non-targeting shRNA sequence (shCtrl). […] First, the shSIK3 or shCtrl transduced tumour cells were co-cultured with HLA-A2.1+−matched TIL209, and the extent of T cell-mediated killing was monitored using in vitro real-time live-cell microscopy. […]
# M579 cells = assay: real-time live-cell microscopy of TIL209-mediated lysis of shRNA-transduced tumour cells; format: cell-based, human; conditions: co-culture with HLA-A2.1+-matched TIL209, compared to shCtrl
# Source text: FIG. 15: Real-time live cell microscopy showing mean+/−SEM of TIL209-mediated lysis of M579 cells transduced with shCtrl or shSIK3 lentiviral constructs. The graph indicates the area of YOYO-1+ cells/well (um2/well).
# SIK3 was stably knocked down in the primary line using SIK3-specific shRNA (shSIK3) or the control non-targeting shRNA sequence (shCtrl). The shRNA sequences targeting SIK3 are set forth in Table A2, and the transduced cell lines were produced briefly as follows: lentiviral transduction particles expressing an shRNA targeting SIK3 mRNA or control shRNA (Sigma-Aldrich) were used for transduction. 5×10^4 […] cells were seeded in a 6 well plate in DMEM 10% FCS 1% P/S. After 24 h, lentiviral particles were added using multiplicity of infection (MOI)=2. 48 h from transduction, cells were put under positive selection using 0.4 μg/ml puromycin. First, the shSIK3 or shCtrl transduced tumour cells were co-cultured with HLA-A2.1+−matched TIL209, and the extent of T cell-mediated killing was monitored using in vitro real-time live-cell microscopy. […] Second, the shSIK3 and shCtrl transduced tumour cells were subcutaneously injected into the left and the right flank, respectively, of NSG immune deficient mice (FIG. 16A), and adoptive cell transfer of TIL209 or PBS injection was applied i.v. once per week (FIG. 16B Scheme).
# [3] = indicative IC50, Table 2A, ATP 1.0 uM
molecule,measurement,setting,value
"Cc1nc(Nc2ncc(C(=O)Nc3ccccc3S(=O)(=O)C(C)C)s2)cc(N2CCN(CCO)CC2)n1 [Compound A6, 2-((6-(4-(2-hydroxyethyl)piperazin-1-yl)-2-methylpyrimidin-4-yl)amino)-N-(2-(propane-2-sulfonyl)phenyl)thiazole-5-carboxamide]",IC50,"SIK2; indicative IC50, Table 2A",> 100 nM
same,tumour cell survival (RLU),M579-A2-luc tumour cells,remains unaffected
same,IC50,SIK3; [3],> 1000 nM
same,IC50,"SIK1; indicative IC50, Table 2A",> 1000 nM
"Cc1nc(Nc2ncc(C(=O)Nc3ccccc3)s2)cc(N2CCN(CCO)CC2)n1 [Compound A11, ((6-(4-(2-hydroxyethyl)piperazin-1-yl)-2-methylpyrimidin-4-yl)amino)-N-phenylthiazole-5-carboxamide]",IC50,"SIK2; indicative IC50, Table 2A",> 100 nM
same,tumour cell survival (RLU),M579-A2-luc tumour cells,remains unaffected
same,IC50,SIK3; [3],> 1000 nM
same,IC50,"SIK1; indicative IC50, Table 2A",> 100 nM
"CCOc1cccc(Cl)c1NC(=O)c1cnc(Nc2cc(N3CCN(CCO)CC3)nc(C)n2)s1 [Compound B8, N-(2-chloro-6-ethoxyphenyl)-2-((6-(4-(2-hydroxyethyl)piperazin-1-yl)-2-methylpyrimidin-4-yl)amino)thiazole-5-carboxamide]",IC50,"SIK2; indicative IC50, Table 4",> 1000 nM
same,cytotoxicity of M579 A2 cells in combination with TNF compared to inhibitor alone,"M579-A2-luc tumour cells; TNF 10 ng/mL, inhibitor between about 10 and 100 nM, FIG. 17",fails to exhibit cytotoxicity
same,IC50,ABL1 wt,< 100 nM
same,IC50,SIK3,> 5000 nM
same,IC50,SRC (GST-HIS-tag),< 100 nM
same,IC50,"SIK1; indicative IC50, Table 4",> 1000 nM
"COc1cc(Nc2c(C#N)cnc3cc(OCCCN4CCN(C)CC4)c(OC)cc23)c(Cl)cc1Cl [bosutinib, 3-Quinolinecarbonitrile, 4-[(2,4-dichloro-5-methoxyphenyl)amino]-6-methoxy-7-[3-(4-methyl-1-piperazinyl)propoxy]-, hydrate (1:1)]",sensitivity to TILs and/or TNF-mediated tumour lysis (cytotoxicity to viability ratio in Luc-CTL assay),PANC-1 tumour cells [1],remarkable increase in sensitivity to TILs and/or TNF-mediated tumour lysis
HG-9-91-01,sensitivity to TILs and/or TNF-mediated tumour lysis (cytotoxicity to viability ratio in Luc-CTL assay),PANC-1 tumour cells [2],remarkable increase in sensitivity to TILs and/or TNF-mediated tumour lysis
"shSIK3: SIK3-specific shRNA, Sigma TRCN0000037452, delivered by lentiviral transduction particles (DNA CCGGGCCAGGCTTTATCTTATCAAACTCGAGTTTGATAAGATAAAGCCTGGCTTTTTG)",tumour growth kinetic,"M579 tumours; PBS-treated, shCtrl versus shSIK3",no difference in the tumour growth kinetic
same,tumour growth,"M579 tumours; s.c. tumours, TIL209 i.v. once per week, compared to shCtrl",retardation of tumour growth
same,T cell-mediated killing,M579 cells,increased killing efficacy
